This passage reports Activity and inhibition in vivo results from ChEMBL document CHEMBL3046590, “Design and synthesis of some thiazolotriazolyl esters as anti-inflammatory and analgesic agents” (Med Chem Res, 2012).

As usually defined, the inhibition in vivo is the percentage by which the read-out fell short of the control.

Each structure is given as a SMILES string.

Data set [1] relates to Mus musculus. The data set is described as follows: Anti-inflammatory activity in Mus musculus BALB/c (mouse) assessed as carrageenan-induced paw swelling at 200 mg/kg, po administered 1 hr followed by carrageenan challenge measured at 360 min (reference value: 105 +/- 4.5 x 10^-2 mm). The format is functional. (In general: Carrageenan injected into the paw causes an acute inflammation.)

The subject of data set [2] is Mus musculus. The data set is described as follows: Antioxidant activity in Mus musculus BALB/c (mouse) stomach assessed as TBARS level at 100 mg/kg, po (reference value: 80.4 +/- 5.4 nmol/g ). Type of data set: functional.
Data set [3] deals with Mus musculus. The data set is described as follows: Anti-inflammatory activity in Mus musculus BALB/c (mouse) assessed as carrageenan-induced paw swelling at 100 mg/kg, po administered 1 hr followed by carrageenan challenge measured at 360 min (reference value: 105 +/- 4.5 x 10^-2 mm). Type of data set: functional.
The test system of data set [4] is Mus musculus. The data set is described as follows: Anti-inflammatory activity in Mus musculus BALB/c (mouse) assessed as carrageenan-induced paw swelling at 100 mg/kg, po administered 1 hr followed by carrageenan challenge measured at 90 min (reference value: 39 +/- 5.6 x 10^-2 mm). Type of data set: functional.
The test system of data set [5] is Mus musculus. In words: Anti-inflammatory activity in Mus musculus BALB/c (mouse) assessed as inhibition of carrageenan-induced paw swelling at 100 mg/kg, po administered 1 hr followed by carrageenan challenge measured at 360 min relative to control. Type of data set: functional.
Data set [6] concerns Mus musculus. In words: Anti-inflammatory activity in Mus musculus BALB/c (mouse) assessed as carrageenan-induced paw swelling at 200 mg/kg, po administered 1 hr followed by carrageenan challenge measured at 90 min (reference value: 39 +/- 5.6 x 10^-2 mm). The format is functional.
Data set [7] has as its system Mus musculus. In words: Anti-inflammatory activity in Mus musculus BALB/c (mouse) assessed as carrageenan-induced paw swelling at 50 mg/kg, po administered 1 hr followed by carrageenan challenge measured at 180 min (reference value: 52 +/- 4.6 x 10^-2 mm). Type of data set: functional.
Data set [8] concerns Mus musculus. The data set is described as follows: Toxicity in Mus musculus BALB/c (mouse) assessed as behavioral changes at 50 to 200 mg/kg, po after 72 hr. The format is organism-based. Also noted: dose 50-200 mg/kg, route oral. The following applies: in vivo.
The subject of data set [9] is Mus musculus. In words: Anti-inflammatory activity in Mus musculus BALB/c (mouse) assessed as inhibition of carrageenan-induced paw swelling at 50 mg/kg, po administered 1 hr followed by carrageenan challenge measured at 90 min relative to control. The format is functional.
Data set [10] deals with Mus musculus. In words: Anti-inflammatory activity in Mus musculus BALB/c (mouse) assessed as inhibition of carrageenan-induced paw swelling at 50 mg/kg, po administered 1 hr followed by carrageenan challenge measured at 180 min relative to control. The format is functional.
Data set [11] concerns Mus musculus. The data set is described as follows: Anti-inflammatory activity in Mus musculus BALB/c (mouse) assessed as carrageenan-induced paw swelling at 200 mg/kg, po administered 1 hr followed by carrageenan challenge measured at 180 min (reference value: 52 +/- 4.6 x 10^-2 mm). Type of data set: functional.
The subject of data set [12] is Mus musculus. The data set is described as follows: Anti-inflammatory activity in Mus musculus BALB/c (mouse) assessed as inhibition of carrageenan-induced paw swelling at 100 mg/kg, po administered 1 hr followed by carrageenan challenge measured at 180 min relative to control. The format is functional.
Data set [13] concerns Mus musculus. The data set is described as follows: Anti-inflammatory activity in Mus musculus BALB/c (mouse) assessed as carrageenan-induced paw swelling at 100 mg/kg, po administered 1 hr followed by carrageenan challenge measured at 270 min (reference value: 78 +/- 8.4 x 10^-2 mm). Type of data set: functional.
In data set [14] the test system is Mus musculus. The data set is described as follows: Anti-inflammatory activity in Mus musculus BALB/c (mouse) assessed as carrageenan-induced paw swelling at 50 mg/kg, po administered 1 hr followed by carrageenan challenge measured at 270 min (reference value: 78 +/- 8.4 x 10^-2 mm). Type of data set: functional.
In data set [15] the test system is Mus musculus. In words: Analgesic activity in Mus musculus BALB/c (mouse) assessed as inhibition of acetic acid-induced writhing at 100 mg/kg, po administered 1 hr followed by acetic acid challenge measured for 10 min. Type of data set: functional. On the technique in general: An intraperitoneal irritant provokes the stretching counted in writhing tests.
Data set [16] has as its system Mus musculus. In words: Anti-inflammatory activity in Mus musculus BALB/c (mouse) assessed as carrageenan-induced paw swelling at 50 mg/kg, po administered 1 hr followed by carrageenan challenge measured at 360 min (reference value: 105 +/- 4.5 x 10^-2 mm). Type of data set: functional.
In data set [17] the test system is Mus musculus. The data set is described as follows: Toxicity in Mus musculus BALB/c (mouse) assessed as mortality at 50 to 200 mg/kg, po after 72 hr. Type of data set: organism-based. Also noted: dose 50-200 mg/kg, route oral. The following applies: in vivo.
In data set [18] the test system is Mus musculus. The data set is described as follows: Anti-inflammatory activity in Mus musculus BALB/c (mouse) assessed as carrageenan-induced paw swelling at 200 mg/kg, po administered 1 hr followed by carrageenan challenge measured at 270 min (reference value: 78 +/- 8.4 x 10^-2 mm). The format is functional.
Data set [19] has as its system Mus musculus. The data set is described as follows: Anti-inflammatory activity in Mus musculus BALB/c (mouse) assessed as inhibition of carrageenan-induced paw swelling at 200 mg/kg, po administered 1 hr followed by carrageenan challenge measured at 270 min relative to control. Type of data set: functional.
For data set [20], the system named is Mus musculus. In words: Anti-inflammatory activity in Mus musculus BALB/c (mouse) assessed as carrageenan-induced paw swelling at 50 mg/kg, po administered 1 hr followed by carrageenan challenge measured at 90 min (reference value: 39 +/- 5.6 x 10^-2 mm). The format is functional.
Data set [21] has as its system Mus musculus. The data set is described as follows: Anti-inflammatory activity in Mus musculus BALB/c (mouse) assessed as inhibition of carrageenan-induced paw swelling at 100 mg/kg, po administered 1 hr followed by carrageenan challenge measured at 270 min relative to control. The format is functional.
For data set [22], the system named is Mus musculus. The data set is described as follows: Anti-inflammatory activity in Mus musculus BALB/c (mouse) assessed as carrageenan-induced paw swelling at 100 mg/kg, po administered 1 hr followed by carrageenan challenge measured at 180 min (reference value: 52 +/- 4.6 x 10^-2 mm). The format is functional.
The subject of data set [23] is Mus musculus. In words: Anti-inflammatory activity in Mus musculus BALB/c (mouse) assessed as inhibition of carrageenan-induced paw swelling at 200 mg/kg, po administered 1 hr followed by carrageenan challenge measured at 180 min relative to control. Type of data set: functional.
Data set [24] relates to Mus musculus. In words: Anti-inflammatory activity in Mus musculus BALB/c (mouse) assessed as inhibition of carrageenan-induced paw swelling at 100 mg/kg, po administered 1 hr followed by carrageenan challenge measured at 90 min relative to control. Type of data set: functional.
Data set [25] has as its system Mus musculus. In words: Anti-inflammatory activity in Mus musculus BALB/c (mouse) assessed as inhibition of carrageenan-induced paw swelling at 50 mg/kg, po administered 1 hr followed by carrageenan challenge measured at 360 min relative to control. Type of data set: functional.

`CCOC(=O)c1sc2nc(CCc3cc(OC)c(OC)c(OC)c3)nn2c1C`: the Activity in the data set on Mus musculus [1] was determined as 92.9 ×10⁻² mm; with Mus musculus [2] it was 109.1 nmol/g; in the data set on Mus musculus [3], 83.8 ×10⁻² mm; in the data set with Mus musculus [4], 34.5 ×10⁻² mm; in the data set on Mus musculus [6], 32.4 ×10⁻² mm; in the data set on Mus musculus [7], 29 ×10⁻² mm. In addition, the Activity entry is given as “Non-toxic” in the data set on Mus musculus [8]; 38.9 ×10⁻² mm in the data set with Mus musculus [11]; 63.4 ×10⁻² mm in the data set with Mus musculus [13]; 73.8 ×10⁻² mm in the data set with Mus musculus [14]; 101.4 ×10⁻² mm in the data set on Mus musculus [16]; “Non-toxic” with Mus musculus [17]. The Activity with Mus musculus [18] is given as 60.9 ×10⁻² mm; in the data set on Mus musculus [20], 19.5 ×10⁻² mm; in the data set with Mus musculus [22] it was 37 ×10⁻² mm. The inhibition in vivo at 100 mg/kg worked out at 20.2% in the data set with Mus musculus [5], 28.8% in the data set with Mus musculus [12], 85.9% in the data set with Mus musculus [15] and 18.7% in the data set with Mus musculus [21]. Also, the values for the inhibition in vivo at 50 mg/kg with Mus musculus [9] and in the data set on Mus musculus [10] were 50% and 44.2%, respectively. For the same compound, the inhibition in vivo at 200 mg/kg in the data set with Mus musculus [19] worked out at 21.9%; in the data set with Mus musculus [23], 25.2%.

As to `COc1cc(CCC2=NC(=S)N=N2)cc(OC)c1OC`, the Activity in the data set on Mus musculus [1] turned out to be 106.7 ×10⁻² mm; in the data set on Mus musculus [2], 79.1 nmol/g; in the data set with Mus musculus [3], 65.1 ×10⁻² mm; in the data set on Mus musculus [4], 28 ×10⁻² mm; in the data set with Mus musculus [6] it was 39.7 ×10⁻² mm; with Mus musculus [7], 48.2 ×10⁻² mm. For the same compound, the Activity result with Mus musculus [8] is “Non-toxic”; in the data set with Mus musculus [11], 50.5 ×10⁻² mm; in the data set with Mus musculus [13], 37.3 ×10⁻² mm; in the data set with Mus musculus [14] it was 74.5 ×10⁻² mm; in the data set on Mus musculus [16], 84.1 ×10⁻² mm; with Mus musculus [17], “Non-toxic”. The Activity in the data set on Mus musculus [18] was 70.3 ×10⁻² mm; with Mus musculus [20], 52.6 ×10⁻² mm; with Mus musculus [22], 30.8 ×10⁻² mm. In addition, the inhibition in vivo at 100 mg/kg turned out to be 38% in the data set with Mus musculus [5], 28.2% in the data set on Mus musculus [24], 40.8% in the data set on Mus musculus [12] and 52.2% in the data set on Mus musculus [21]. In the data set with Mus musculus [25], the inhibition in vivo at 50 mg/kg was found to be 19.9%.
